O=c1c(O)c(-c2ccc(O)c(O)c2)oc2cc(O)cc(O)c12
solubility (mole fraction)
Settings	292.8 K	298.6 K	303.2 K	308.6 K	314.1 K	318.8 K	322.2 K	325.6 K	331.2 K	333.8 K
in ethanol	0.00135	0.00153	0.00165	0.00178	0.00193	0.00207	0.00218	0.0023	0.0025	0.00255
in methanol	0.000845	0.000919	0.000957	0.00104	0.00113	0.00127	0.00133	0.00142	0.00159	0.00163
in water	5.04e-05	5.51e-05	5.85e-05	6.18e-05	6.53e-05	6.7e-05	6.91e-05	7.13e-05	7.38e-05	7.53e-05

— BigSolDB 2.1
